# Experimental data reported in patent US20260345555A1, “Compositions and Methods for Protecting Salivary Glands from Off-Target Radiation Damage” (University of Rochester, priority 2022, published 2026).
# Assays:
# [1] = in vivo; cited from earlier work
# [2] = in vivo; cited from earlier work; remark: listed apart in the source
# [3] = tested on: Reduced glutathione in salivary gland cell clusters (SGm); experiment: Glutathione assay in salivary gland tissue chip, 4 days post-radiation (15 Gy); also first screen of Selleck library at 100 μM; format: cell-based, mouse; details: for protection against glutathione level changes resulting from radiation: 50 μM
# Procedure, shortened: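 Mouse submandibular gland cell clusters (20–100 μm) in PEG hydrogel on microbubble chips, cultured 4 days to form SGm, then dosed 30 min before and during 15 Gy irradiation and washed out 30 min after. Glutathione measured 4 days post-radiation; library compounds screened at 100 μM, hits matching 0 Gy levels.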
# [4] = tested on: senescence-associated β-galactosidase in salivary gland cell clusters (SGm); experiment: Cellular senescence assay (SPiDER-βGal) in salivary gland tissue chip, 5 days post-radiation (15 Gy); also second screen of library hits at 100 μM; format: cell-based, mouse; as to Senescence (radioprotection): key: +: radioprotection; ~: partial radioprotection; —: no radioprotection
# Description: The chip platform consists of an array of near-spherical microbubble (MB) cavities formed in poly(dimethylsiloxane) (PDMS). Each chip, containing ~50 MBs, affixed within wells of a 96-well plate (FIG. 1C). Primary salivary gland cell clusters (FIG. 1A), suspended in a poly(ethylene glycol) (PEG) hydrogel precursor and MMP-degradable peptide crosslinker solution together with the photoinitiator LAP, were applied to the chip allowing the clusters to deposit into the MBs (FIG. 1D). In situ polymerization of the hydrogel was achieved using long-wave, low intensity UV light. Over time, the cell clusters aggregate and proliferate to form SGm (FIG. 1C).
# For senescence, a protocol similar to the glutathione assay was followed to determine the optimal time point post-radiation for detecting a change in senescence between 0 Gy and 15 Gy, as measured by senescence-associated β-galactosidase activity.
# The glutathione and senescence assays were used to screen a library of FDA-approved drugs (Selleck Chemicals) at 100 μM. Drugs were first screened using the glutathione assay according to the timeline depicted in FIG. 2A. […] Hits with the glutathione assay were then tested with the senescence assay and considered a “double hit” if senescence levels were statistically similar to levels at 0 Gy (FIG. 4, black circles).
# Mice were euthanized and the submandibular glands (SMG) were removed and chopped with a razor blade for 5 min. […] Cells were centrifuged, then resuspended in HBSS with 15 mM HEPES and passed through 100 μm and 20 μm mesh filters to isolate clusters between 20-100 μm. […] The isolated clusters were combined with hydrogel precursor solution and seeded in MB array-based chips as described below.
# The cell/gel precursor solution (25 μL for 48 well; 20 μL for 96 well) was pipetted onto the MB chips and incubated for 30 min, pipetting every 10 min to redisperse cells that had settled onto the surface of the chip.
# A cellular senescence assay for the chips was developed by adapting the Cellular Senescence Detection Kit—SPiDER-βGal (Dojindo Molecular Technologies, Inc. SG04). Bafilomycin A1 and SPiDER-βGal stock solutions were prepared in DMSO per manufacturer directions. The assay was performed by first incubating the chips with bafilomycin A1 (1:1000 dilution in media) for 1 hr at 37 °C. […] Chips were washed twice with media and imaged using a fluorescence microscope with a Texas Red filter (Excitation: 580 nm; Emission: 604 nm).
# For radioprotection experiments, SGm were cultured in MB-hydrogel chips for 4 days, then drugs were added to the chips 30 min prior to irradiation and washed out with media 30 min post-radiation treatment. […] The glutathione and senescence assays were performed at 4- and 5-days post-radiation. For assay validation experiments, at least 3 chips (N=3) were used for each drug, corresponding to >100 MBs (n>100); these values are listed in the figure description for each experiment. Mean, standard deviation, and statistics were calculated based on the number of MBs (n).
# For screening of the Selleck Chemicals compound library, the same treatment scheme was used, with drugs administered at 100 μM. One MB chip (N=1) was used per compound, with ~40-50 MBs per chip […]; statistics were calculated using the number of MBs (n) and compared to 0 Gy controls.
# For both the glutathione and cellular senescence assays, images were quantified in ImageJ.
# salivary flow rate = details: swine; cited from earlier work
# [5] = reason for exclusion from further testing; cited from earlier work
# COX-1 = details: role: inhibitor; cited from earlier work
# [6] = tested on: irradiated salivary glands; details: literature; cited from earlier work
# [7] = tested on: p53-dependent and independent apoptosis; details: cited from earlier work
smiles,measurement,setting,value
NCCCNCCSP(=O)(O)O [amifostine],adverse effects,[1],"severe side effects, including nausea, vomiting, and hypotension"
CCCSc1ccc2nc(NC(=O)OC)[nH]c2c1 [Albendazole (Albenza)],bioavailability,[2],poor bioavailability
CC(O)(P(=O)(O)O)P(=O)(O)O [Etidronate (Didronel)],Glutathione normalized mean intensity,"[3]; first screen of Selleck library at 100 μM, 15 Gy, 4 days post-radiation",0.9486
same,Senescence normalized mean intensity,"[4]; second screen of library hits at 100 μM, 15 Gy, 5 days post-radiation, only drugs nonsignificant compared to 0 Gy in the glutathione assay",0.992
same,bioavailability,[2],poor bioavailability
CO[C@H]1C[C@@H]2CC[C@@H](C)[C@@](O)(O2)C(=O)C(=O)N2CCCC[C@H]2C(=O)O[C@H]([C@H](C)C[C@@H]2CC[C@@H](O)[C@H](OC)C2)CC(=O)[C@H](C)/C=C(\C)[C@@H](O)[C@@H](OC)C(=O)[C@H](C)C[C@H](C)/C=C/C=C/C=C/1C [Rapamycin],protection against glutathione level changes resulting from radiation,[3]; 15 Gy,58%
same,Senescence (radioprotection),[4]; 50 μM,+
same,protection against radiation-induced senescence,"[4]; 50 μM, 15 Gy",complete protection
same,salivary flow rate post-radiation,salivary flow rate,restore salivary flow rate post-radiation
COC(=O)[C@@H]1CC2=CC(=O)CC[C@]2(C)[C@@]23O[C@@H]2C[C@@]2(C)[C@@H](CC[C@@]24CCC(=O)O4)[C@H]13 [Eplerenone],solubility,[5],concerns with solubility
COc1ccc2c(c1)c(CC(=O)O)c(C)n2C(=O)c1ccc(Cl)cc1 [Indomethacin],radioprotection in drug screen,[3]; 100 μM library screen,showed radioprotection
same,radioprotection in drug screen,[3]; concentrations lower than 100 μM,ineffective
same,COX-1 inhibition,COX-1,only blocks COX-1
same,mitigation of salivary gland damage,[6],mitigation of salivary gland damage
O=C(O)c1ccc(/C=C/S(=O)(=O)Cc2ccc(Cl)cc2)cc1 [Ex-Rad],protection against glutathione level changes resulting from radiation,[3]; 15 Gy,no effect observed
same,radioprotection (senescence),"[4]; 50 μM, 15 Gy",45%
same,apoptosis,[7],reduce p53-dependent and independent apoptosis
